ChEMBL document CHEMBL4619704, “Structural determinants of affinity and selectivity in the binding of inhibitors to histone deacetylase 6” (Bioorg Med Chem Lett, 2020)
Each block holds one compound with its values, some of them ahead of it.

Key:
[1] = target: T1, Protein deacetylase HDAC6 (Homo sapiens, UniProt Q9UBN7); assay: Inhibition of human HDAC6 (unknown origin)
T1 sequence (Q9UBN7 whole entry): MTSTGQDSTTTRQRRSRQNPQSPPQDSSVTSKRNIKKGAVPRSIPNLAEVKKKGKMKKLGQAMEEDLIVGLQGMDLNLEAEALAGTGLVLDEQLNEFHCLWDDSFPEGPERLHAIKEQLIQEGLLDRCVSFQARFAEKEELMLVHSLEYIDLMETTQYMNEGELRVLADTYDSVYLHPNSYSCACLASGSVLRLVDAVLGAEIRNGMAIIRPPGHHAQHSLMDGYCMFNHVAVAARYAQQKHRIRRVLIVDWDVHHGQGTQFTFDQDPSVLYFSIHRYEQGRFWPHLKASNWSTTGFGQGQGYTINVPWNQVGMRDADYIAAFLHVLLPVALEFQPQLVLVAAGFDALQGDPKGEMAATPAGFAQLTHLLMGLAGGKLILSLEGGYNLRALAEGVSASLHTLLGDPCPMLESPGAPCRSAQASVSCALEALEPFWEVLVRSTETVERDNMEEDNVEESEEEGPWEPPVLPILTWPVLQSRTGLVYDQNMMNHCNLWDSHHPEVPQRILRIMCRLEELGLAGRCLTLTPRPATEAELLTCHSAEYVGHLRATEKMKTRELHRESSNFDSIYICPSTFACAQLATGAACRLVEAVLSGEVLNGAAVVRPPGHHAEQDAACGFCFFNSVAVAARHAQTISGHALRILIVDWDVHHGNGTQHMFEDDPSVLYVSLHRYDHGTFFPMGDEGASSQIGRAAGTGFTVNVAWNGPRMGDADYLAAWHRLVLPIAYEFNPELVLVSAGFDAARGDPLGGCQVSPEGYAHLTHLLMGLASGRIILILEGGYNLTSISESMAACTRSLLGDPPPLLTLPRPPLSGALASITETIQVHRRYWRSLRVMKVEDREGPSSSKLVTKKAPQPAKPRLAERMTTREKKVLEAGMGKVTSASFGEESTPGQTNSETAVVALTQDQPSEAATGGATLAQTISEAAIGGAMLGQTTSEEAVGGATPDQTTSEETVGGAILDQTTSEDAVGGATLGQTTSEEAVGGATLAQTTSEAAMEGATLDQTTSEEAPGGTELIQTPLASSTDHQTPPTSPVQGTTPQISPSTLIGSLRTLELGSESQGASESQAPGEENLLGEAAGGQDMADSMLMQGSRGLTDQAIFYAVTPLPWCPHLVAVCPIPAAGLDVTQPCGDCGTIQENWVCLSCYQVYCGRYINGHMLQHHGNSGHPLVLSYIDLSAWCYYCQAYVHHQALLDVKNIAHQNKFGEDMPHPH

[2] = target: T1, Protein deacetylase HDAC6; assay: Inhibition of HDAC6 (unknown origin) using acetyl-lysine tripeptide as substrate preincubated for 24 hrs followed by substrate addition and measured after 30 mins by microtiter plate reader analysis
Histone deacetylase 1 [3] = target: T2, Histone deacetylase 1 (Homo sapiens, UniProt Q13547); assay: Inhibition of HDAC1 (unknown origin)
T2 sequence (Q13547 whole entry): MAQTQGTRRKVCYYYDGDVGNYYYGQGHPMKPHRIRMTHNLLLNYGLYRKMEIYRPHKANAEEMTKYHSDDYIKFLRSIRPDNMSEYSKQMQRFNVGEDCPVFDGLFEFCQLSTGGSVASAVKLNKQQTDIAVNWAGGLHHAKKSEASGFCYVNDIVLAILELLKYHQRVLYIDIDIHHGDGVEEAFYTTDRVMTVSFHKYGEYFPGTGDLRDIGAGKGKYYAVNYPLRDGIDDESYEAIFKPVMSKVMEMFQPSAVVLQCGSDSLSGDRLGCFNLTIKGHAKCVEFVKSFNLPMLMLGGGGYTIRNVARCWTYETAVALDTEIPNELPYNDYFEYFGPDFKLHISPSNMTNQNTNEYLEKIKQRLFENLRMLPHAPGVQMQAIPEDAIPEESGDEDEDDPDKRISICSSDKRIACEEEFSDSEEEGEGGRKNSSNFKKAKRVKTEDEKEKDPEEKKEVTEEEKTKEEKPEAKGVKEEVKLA

Histone deacetylase 1 [4] = target: T2, Histone deacetylase 1; assay: Inhibition of C-terminal Flag-tagged HDAC1 (unknown origin) expressed in HEK293 cells or Sf21 cells using Ac-NH-GGK(Ac)-AMC peptide as substrate measured after 180 mins by fluorescence based assay
Histone deacetylase 1 [5] = target: T2, Histone deacetylase 1; assay: Inhibition of C-terminal Flag-tagged HDAC1 (unknown origin) expressed in HEK293 cells or Sf21 cells using Ac-RHK(Ac)K(Ac)-AMC peptide as substrate measured after 180 mins by fluorescence based assay

IC50 [1]: 1400 nM
Compound: NCCCNCCCCCC(=O)C(F)(F)F

IC50 [2]: 3 nM
IC50 (Histone deacetylase 1 [3]): 780 nM
Compound: O=C(NO)c1cnc(NC2(c3ccccc3)CCC(F)(F)CC2)nc1

IC50 (Histone deacetylase 1 [4]): 43 nM
IC50 (Histone deacetylase 1 [5]): 877 nM
Compound: CN(C)Cc1ccc(S(=O)(=O)n2ccc(/C=C/C(=O)NO)c2)cc1 [RESMINOSTAT]
